According to patent US9227971B2, “Pyrazolo[1,5-a]pyrimidine compounds as mTOR inhibitors” (Merck Sharp & Dohme Corp., priority 2010, dated 2016):
Where two headings read alike, the source gives them in different places.

Key:
[1] = system: phosphorylated 4E-BP1 Thr37/46 (p4E-BP1 Thr37/46), mTORC1 activity, PC3 cells; assay: mTOR target engagement assay, immunofluorescent cell-based, p4E-BP1 Thr37/46 readout (mTORC1 activity); settings: read-out: p4E-BP1 Thr37/46 IC50
In short: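 Read-out is fluorescence intensity of immunostained p4E-BP1 Thr37/46 in fixed PC3 cells, fitted to a logistic curve for IC50 with DMSO-only wells as top. Cells had been exposed to serial compound dilutions for ninety minutes at 37° C in 5% FBS medium with 0.25% DMSO.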

[2] = system: phosphorylated AKT Ser473 (pAKT S473), mTORC2 activity, PC3 cells; assay: mTOR target engagement assay, immunofluorescent cell-based, pAKT S473 readout (mTORC2 activity)
In short: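 After blocking, cells were stained overnight at 4 °C with anti-pAKT S473 antibody, then a fluorescent secondary; inhibition was read as reduced fluorescence intensity.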

[3] = Homo sapiens, PC-3, PC3 cells, compound treatment ninety minutes at 37° C.
[4] = Homo sapiens, PC-3, Table 3-1, PC3 cells
[5] = Homo sapiens, PC-3, Table 6-1, PC3 cells
[6] = Homo sapiens, PC-3, Table 7-5, PC3 cells

Compound | IC50 [1, 3] [nM] | IC50 [2, 3] [nM] | further results
Cc1[nH]nc(-c2ccc(-c3cnn4c(N)c(C5CC5)c([C@@H]5C[C@H]6CC[C@@H](C5)N6C(=O)CO)nc34)cn2)c1F [Compound 4.20, 1-((1R,3s,5S)-3-(7-amino-6-cyclopropyl-3-(6-(4-fluoro-5-methyl-1H-pyrazol-3-yl)pyridin-3-yl)pyrazolo[1,5-a]pyrimidin-5-yl)-8-azabicyclo[3.2.1]octan-8-yl)-2-hydroxyethanone] | 100 to 1000 | 100 to 1000 | 
CS(=O)(=O)c1c([C@@H]2C[C@H]3CC[C@@H](C2)N3C(=O)c2ncc[nH]2)nc2c(-c3ccc(-c4ccccc4)nc3)cnn2c1N [Compound 3.78, ((1R,3s,5S)-3-(7-amino-6-(methylsulfonyl)-3-(6-phenylpyridin-3-yl)pyrazolo[1,5-a]pyrimidin-5-yl)-8-azabicyclo[3.2.1]octan-8-yl)(1H-imidazol-2-yl)methanone] |  |  | IC50 [1, 4]: 100 to 1000 nM; IC50 [2, 4]: 100 to 1000 nM
COc1ccc(-c2ccc(-c3cnn4c(N)c(C(C)=O)c([C@@H]5C[C@H]6CC[C@@H](C5)N6C(=O)C(C)(CO)CO)nc34)cn2)cc1F [Compound 1.1.59, 1-((1R,3s,5S)-3-(6-acetyl-7-amino-3-(6-(3-fluoro-4-methoxyphenyl)pyridin-3-yl)pyrazolo[1,5-a]pyrimidin-5-yl)-8-azabicyclo[3.2.1]octan-8-yl)-3-hydroxy-2-(hydroxymethyl)-2-methylpropan-1-one] | 1 to 100 | 1 to 100 | 
CS(=O)(=O)c1c([C@H]2CC3CC[C@H](C2)N3C(=O)c2cn[nH]n2)nc2c(-c3cnn(-c4ccc(F)cc4)c3)cnn2c1N [Compound 3.178, ((1R,3s,5S)-3-(7-amino-3-(1-(4-fluorophenyl)-1H-pyrazol-4-yl)-6-(methylsulfonyl)pyrazolo[1,5-a]pyrimidin-5-yl)-8-azabicyclo[3.2.1]octan-8-yl)(2H-1,2,3-triazol-4-yl)methanone] |  |  | IC50 [1, 4]: 1000 to 10000 nM; IC50 [2, 4]: 1000 to 10000 nM
CC(=O)c1c([C@@H]2C[C@H]3CC[C@@H](C2)N3C(=O)c2nnc(C)[nH]2)nc2c(-c3ccc(-c4ccc(F)cc4)nc3)cnn2c1N [Compound 1.1.160, 1-(7-amino-3-(6-(4-fluorophenyl)pyridin-3-yl)-5-((1R,3s,5S)-8-(5-methyl-4H-1,2,4-triazole-3-carbonyl)-8-azabicyclo[3.2.1]octan-3-yl)pyrazolo[1,5-a]pyrimidin-6-yl)ethanone] | 100 to 1000 | 1 to 100 | 
CC(=O)c1c([C@@H]2C[C@H]3CC[C@@H](C2)N3C(N)=O)nc2c(-c3ccc(-c4ncc[nH]4)nc3)cnn2c1N [Compound 6.30, (1R,3s,5S)-3-(3-(6-(1H-imidazol-2-yl)pyridin-3-yl)-6-acetyl-7-aminopyrazolo[1,5-a]pyrimidin-5-yl)-8-azabicyclo[3.2.1]octane-8-carboxamide] |  |  | IC50 [1, 5]: 1 to 100 nM; IC50 [2, 5]: 1 to 100 nM
CC(=O)c1c([C@@H]2C[C@H]3CC[C@@H](C2)N3C(=O)CO)nc2c(-c3ccc(-c4ccccc4F)nc3)cnn2c1N [Compound 1.1.172, 1-((1R,3s,5S)-3-(6-acetyl-7-amino-3-(6-(2-fluorophenyl)pyridin-3-yl)pyrazolo[1,5-a]pyrimidin-5-yl)-8-azabicyclo[3.2.1]octan-8-yl)-2-hydroxyethanone] | 1 to 100 | 1 to 100 | 
COc1ccc(-c2ccc(-c3cnn4c(N)c(S(C)(=O)=O)c([C@@H]5C[C@H]6CC[C@@H](C5)N6C(=O)c5nnc[nH]5)nc34)cn2)c(F)c1F [Compound 3.54, ((1R,3s,5S)-3-(7-amino-3-(6-(2,3-difluoro-4-methoxyphenyl)pyridin-3-yl)-6-(methylsulfonyl)pyrazolo[1,5-a]pyrimidin-5-yl)-8-azabicyclo[3.2.1]octan-8-yl)(4H-1,2,4-triazol-3-yl)methanone] |  |  | IC50 [1, 4]: 1 to 100 nM; IC50 [2, 4]: 1 to 100 nM
CC(=O)c1c([C@@H]2C[C@H]3CC[C@@H](C2)N3C(=O)CO)nc2c(-c3cnc(-c4cc[nH]n4)c(F)c3)cnn2c1N [Compound 1.1.111, 1-((1R,3s,5S)-3-(6-acetyl-7-amino-3-(5-fluoro-6-(1H-pyrazol-3-yl)pyridin-3-yl)pyrazolo[1,5-a]pyrimidin-5-yl)-8-azabicyclo[3.2.1]octan-8-yl)-2-hydroxyethanone] | 1000 to 10000 | 1000 to 10000 | 
((1R,3s,5S)-3-(7-amino-3-(6-(1-methyl-(D3)-1H-pyrazol-3-yl)pyridin-3-yl)-6-(methylsulfonyl)pyrazolo[1,5-a]pyrimidin-5-yl)-8-azabicyclo[3.2.1]octan-8-yl)(4H-1,2,4-triazol-3-yl)methanone [Compound 3.70] |  |  | IC50 ([1]; Table 3-1, PC3 cells): 100 to 1000 nM; IC50 ([2]; Table 3-1, PC3 cells): 100 to 1000 nM
Nc1c(C2CC2)c([C@@H]2C[C@H]3CC[C@@H](C2)N3C(=O)NO)nc2c(-c3ccc(-c4ccccc4)nc3)cnn12 [Compound 4.32, (1R,3s,5S)-3-(7-amino-6-cyclopropyl-3-(6-phenylpyridin-3-yl)pyrazolo[1,5-a]pyrimidin-5-yl)-N-hydroxy-8-azabicyclo[3.2.1]octane-8-carboxamide] | 1 to 100 | 1 to 100 | 
CC(=O)c1c([C@@H]2C[C@H]3CC[C@@H](C2)N3C(=O)c2nnc[nH]2)nc2c(-c3ccc(N4NCCC4=O)nc3)cnn2c1N [Compound 8.19, 2-(5-(5-((1R,3s,5S)-8-(4H-1,2,4-triazole-3-carbonyl)-8-azabicyclo[3.2.1]octan-3-yl)-6-acetyl-7-aminopyrazolo[1,5-a]pyrimidin-3-yl)pyridin-2-yl)pyrazolidin-3-one] |  |  | IC50 ([1]; Homo sapiens, PC-3, PC3 cells): 100 to 1000 nM; IC50 ([2]; Homo sapiens, PC-3, PC3 cells): 100 to 1000 nM
COCc1cc(-c2ccc(-c3cnn4c(N)c(C(C)=O)c([C@@H]5C[C@H]6CC[C@@H](C5)N6C(=O)CO)nc34)cn2)ccc1OC [Compound 1.1.44, 1-((1R,3s,5S)-3-(6-acetyl-7-amino-3-(6-(4-methoxy-3-(methoxymethyl)phenyl)pyridin-3-yl)pyrazolo[1,5-a]pyrimidin-5-yl)-8-azabicyclo[3.2.1]octan-8-yl)-2-hydroxyethanone] | 100 to 1000 | 1 to 100 | 
((1R,3s,5S)-3-(7-amino-6-(methylsulfonyl)-3-(6-(5-methylthiazol-2-yl)pyridin-3-yl)pyrazolo[1,5-a]pyrimidin-5-yl)-8-azabicyclo[3.2.1]octan-8-yl)(5-methyl-4H-1,2,4-triazol-3-yl)methanone [Compound 3.183] |  |  | IC50 ([1]; Table 3-1, PC3 cells): 100 to 1000 nM; IC50 ([2]; Table 3-1, PC3 cells): 100 to 1000 nM
CS(=O)(=O)c1c([C@@H]2C[C@H]3CC[C@@H](C2)N3C(=O)c2nnc[nH]2)nc2c(-c3ccc(CO)nc3)cnn2c1N [Compound 7.35, ((1R,3s,5S)-3-(7-amino-3-(6-(hydroxymethyl)pyridin-3-yl)-6-(methylsulfonyl)pyra-zolo[1,5-a]pyrimidin-5-yl)-8-azabicyclo[3.2.1]octan-8-yl)(4H-1,2,4-triazol-3-yl)methanone] |  |  | IC50 [1, 6]: 100 to 1000 nM; IC50 [2, 6]: 100 to 1000 nM
CC(=O)c1c([C@@H]2C[C@H]3CC[C@@H](C2)N3C(=O)c2cc(N)n[nH]2)nc2c(-c3ccc(-c4ccc(F)cc4)nc3)cnn2c1N [Compound 1.1.156, 1-(7-amino-5-((1R,3s,5S)-8-(3-amino-1H-pyrazole-5-carbonyl)-8-azabicyclo[3.2.1]octan-3-yl)-3-(6-(4-fluorophenyl)pyridin-3-yl)pyrazolo[1,5-a]pyrimidin-6-yl)ethanone] | 1 to 100 | 1 to 100 | 
C[C@@H](O)C(=O)N1[C@@H]2CC[C@H]1C[C@H](c1nc3c(-c4ccc(-c5ccccc5)nc4)cnn3c(N)c1S(C)(=O)=O)C2 [Compound 3.28, (R)-1-((1R,3S,5S)-3-(7-amino-6-(methylsulfonyl)-3-(6-phenylpyridin-3-yl)pyrazolo[1,5-a]pyrimidin-5-yl)-8-azabicyclo[3.2.1]octan-8-yl)-2-hydroxypropan-1-one] |  |  | IC50 [1, 4]: 100 to 1000 nM; IC50 [2, 4]: 100 to 1000 nM
CC(=O)c1c([C@@H]2C[C@H]3CC[C@@H](C2)N3C(=O)c2nnc(N)[nH]2)nc2c(-c3ccc(C(O)(C(F)(F)F)C(F)(F)F)nc3)cnn2c1N [Compound 7.78, 1-(7-amino-5-((1R,3s,5S)-8-(5-amino-4H-1,2,4-triazole-3-carbonyl)-8-azabicyclo[3.2.1]octan-3-yl)-3-(6-(1,1,1,3,3,3-hexafluoro-2-hydroxypropan-2-yl)pyridin-3-yl)pyrazolo[1,5-a]pyrimidin-6-yl)ethanone] |  |  | IC50 ([1]; Homo sapiens, PC-3, PC3 cells): 100 to 1000 nM; IC50 ([2]; Homo sapiens, PC-3, PC3 cells): 100 to 1000 nM
CC(=O)c1c([C@@H]2C[C@H]3CC[C@@H](C2)N3C(=O)c2cn[nH]c2N)nc2c(-c3ccc(C(C)(C)O)nc3)cnn2c1N [Compound 7.15, 1-(7-amino-5-((1R,3s,5S)-8-(5-amino-1H-pyrazole-4-carbonyl)-8-azabicyclo[3.2.1]octan-3-yl)-3-(6-(2-hydroxypropan-2-yl)pyridin-3-yl)pyrazolo[1,5-a]pyrimidin-6-yl)ethanone] | 100 to 1000 | 100 to 1000 | 
CC(=O)c1c([C@@H]2C[C@H]3CC[C@@H](C2)N3C(=O)c2nnc[nH]2)nc2c(-c3ccc(-n4cnc(C)c4)nc3)cnn2c1N [Compound 1.1.128, 1-(5-((1R,3s,5S)-8-(4H-1,2,4-triazole-3-carbonyl)-8-azabicyclo[3.2.1]octan-3-yl)-7-amino-3-(6-(4-methyl-1H-imidazol-1-yl)pyridin-3-yl)pyrazolo[1,5-a]pyrimidin-6-yl)ethanone] | > 10000 | > 10000 | 
